# Experimental data reported in ChEMBL document CHEMBL1201862, “PubChem BioAssay data set” (2004).
#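 Assay format: 96-well plates, 48-hour exposure. GI50 marks 50% less growth.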 Active and inactive are the calls of the source. Rule as the data show it: active = GI50 up to about 1.1 µM and inactive = higher.
# Experiments:
# Experiment in all cases: NCI-60 cell line screen, 48 h
# 786-0 = tested on: 786-0
# A498 = tested on: A498
# BT-549 = tested on: BT-549
# COLO 205 = tested on: COLO 205
# DU-145 = tested on: DU-145
# HCC 2998 = tested on: HCC 2998
# HOP-92 = tested on: HOP-92
# IGROV-1 = tested on: IGROV-1
# LOX IMVI = tested on: LOX IMVI
# M14 = tested on: M14
# MDA-MB-435 = tested on: MDA-MB-435
# NCI-H226 = tested on: NCI-H226
# NCI-H23 = tested on: NCI-H23
# OVCAR-3 = tested on: OVCAR-3
# SF-295 = tested on: SF-295
# SK-MEL-5 = tested on: SK-MEL-5
# SNB-19 = tested on: SNB-19
# SR = tested on: SR
# UO-31 = tested on: UO-31
# SNB-75 = tested on: SNB-75
Compound,GI50 (786-0),GI50 (A498),GI50 (BT-549),GI50 (COLO 205),GI50 (DU-145),GI50 (HCC 2998),GI50 (HOP-92),GI50 (IGROV-1),GI50 (LOX IMVI),GI50 (M14),GI50 (MDA-MB-435),GI50 (NCI-H226),GI50 (NCI-H23),GI50 (OVCAR-3),GI50 (SF-295),GI50 (SK-MEL-5),GI50 (SNB-19),GI50 (SR),GI50 (UO-31),GI50 (SNB-75)
Cc1c2n(c3ccccc13)S(=O)(=O)c1ccccc1-2,10.1 µM (inactive),11 µM (inactive),39.8 µM (inactive),> 100 µM (inactive),47.2 µM (inactive),> 100 µM (inactive),30.2 µM (inactive),25.3 µM (inactive),44.6 µM (inactive),27.4 µM (inactive),> 100 µM (inactive),77.3 µM (inactive),23.2 µM (inactive),45.9 µM (inactive),17.3 µM (inactive),72.1 µM (inactive),19.8 µM (inactive),> 100 µM (inactive),18.4 µM (inactive),–
CC1(C(=O)O)C[C@](C)(C(=O)OCc2ccccc2)C[C@](C)(C(=O)OCc2ccccc2)C1 (some centres not stated),32 µM (inactive),–,26.5 µM (inactive),18.5 µM (inactive),29.8 µM (inactive),27 µM (inactive),19.6 µM (inactive),22.8 µM (inactive),30.8 µM (inactive),45.6 µM (inactive),40.5 µM (inactive),27.3 µM (inactive),25.1 µM (inactive),26.4 µM (inactive),21.2 µM (inactive),32.7 µM (inactive),45.7 µM (inactive),29.1 µM (inactive),21.9 µM (inactive),13.7 µM (inactive)
"COc1ccc(-c2oc3c(OC)c(OC)c(OC)c(OC)c3c(=O)c2OC)cc1OC [3,5,6,7,8,3',4'-HEPTAMETHOXYFLAVONE]",24.5 µM (inactive),31 µM (inactive),50.7 µM (inactive),65.6 µM (inactive),55.1 µM (inactive),63.8 µM (inactive),0.0481 µM (active),30.3 µM (inactive),27 µM (inactive),41.4 µM (inactive),15.8 µM (inactive),48.9 µM (inactive),72.6 µM (inactive),18.7 µM (inactive),32 µM (inactive),19.3 µM (inactive),> 100 µM (inactive),19.1 µM (inactive),23.6 µM (inactive),–
C=CCC(SC)C1=C(C)C(=O)c2ccccc21 (configuration not stated),> 10 µM (inactive),> 10 µM (inactive),> 10 µM (inactive),–,> 10 µM (inactive),> 10 µM (inactive),> 10 µM (inactive),> 10 µM (inactive),> 10 µM (inactive),> 10 µM (inactive),> 10 µM (inactive),> 10 µM (inactive),> 10 µM (inactive),> 10 µM (inactive),> 10 µM (inactive),> 10 µM (inactive),> 10 µM (inactive),> 10 µM (inactive),> 10 µM (inactive),–
COc1ccc2c3c1OC1c4[nH]c5ccccc5c4CC4(O)C(C2)N(C)CCC314 (configuration not stated),18.7 µM (inactive),15.3 µM (inactive),30.8 µM (inactive),18.4 µM (inactive),57.9 µM (inactive),16.4 µM (inactive),14.3 µM (inactive),64.1 µM (inactive),20.1 µM (inactive),17.1 µM (inactive),18.1 µM (inactive),–,> 100 µM (inactive),42.3 µM (inactive),82.4 µM (inactive),15.2 µM (inactive),32.4 µM (inactive),15.2 µM (inactive),13.6 µM (inactive),29.3 µM (inactive)
CCOC(=O)C12C(=O)CCN1CCc1ccccc1C2C (configuration not stated),> 100 µM (inactive),> 100 µM (inactive),> 100 µM (inactive),> 100 µM (inactive),> 100 µM (inactive),–,> 100 µM (inactive),> 100 µM (inactive),> 100 µM (inactive),> 100 µM (inactive),> 100 µM (inactive),> 100 µM (inactive),> 100 µM (inactive),> 100 µM (inactive),> 100 µM (inactive),> 100 µM (inactive),> 100 µM (inactive),> 100 µM (inactive),> 100 µM (inactive),–
O=C(/C=C\c1ccccc1)Oc1ccc(/C=C2\CCC/C(=C\c3ccc(OC(=O)/C=C\c4ccccc4)cc3)C2=O)cc1,> 100 µM (inactive),–,> 100 µM (inactive),> 100 µM (inactive),> 100 µM (inactive),> 100 µM (inactive),> 100 µM (inactive),–,> 100 µM (inactive),> 100 µM (inactive),> 100 µM (inactive),–,> 100 µM (inactive),> 100 µM (inactive),> 100 µM (inactive),> 100 µM (inactive),> 100 µM (inactive),> 100 µM (inactive),> 100 µM (inactive),56.5 µM (inactive)
S=c1nc(Nc2ccc(Cl)cc2)c2c3c(sc2[nH]1)CCCC3,> 100 µM (inactive),> 100 µM (inactive),> 100 µM (inactive),> 100 µM (inactive),> 100 µM (inactive),43.4 µM (inactive),76 µM (inactive),> 100 µM (inactive),> 100 µM (inactive),–,> 100 µM (inactive),> 100 µM (inactive),45.1 µM (inactive),> 100 µM (inactive),> 100 µM (inactive),> 100 µM (inactive),> 100 µM (inactive),> 100 µM (inactive),> 100 µM (inactive),–
CC1=NN(C(=O)CSc2nnc(SCC(=O)N3N=C(C)CC3(O)c3ccccc3)s2)C(O)(c2ccccc2)C1 (configuration not stated),43.3 µM (inactive),> 100 µM (inactive),15.5 µM (inactive),32.1 µM (inactive),35.5 µM (inactive),> 100 µM (inactive),33.7 µM (inactive),25.1 µM (inactive),22.8 µM (inactive),16.1 µM (inactive),51.3 µM (inactive),–,34 µM (inactive),41.1 µM (inactive),42 µM (inactive),28.2 µM (inactive),60.4 µM (inactive),23.3 µM (inactive),22.3 µM (inactive),–
CN(Cc1cc(Cl)cc(Cl)c1)CC(C(=O)c1ccccc1)c1ccccc1 (configuration not stated),2.49 µM (inactive),14.5 µM (inactive),3.06 µM (inactive),3.92 µM (inactive),4.69 µM (inactive),–,7.33 µM (inactive),26.7 µM (inactive),1.65 µM (inactive),2.98 µM (inactive),3.61 µM (inactive),5.5 µM (inactive),1.7 µM (inactive),0.605 µM (active),27 µM (inactive),10.5 µM (inactive),14.4 µM (inactive),0.473 µM (active),6.46 µM (inactive),7.48 µM (inactive)
COC(=O)[C@H](C)[C@@H]1CC[C@](C)(CCC2=C(C)CCCC2(C)C)OO1,> 25 µM (inactive),–,> 25 µM (inactive),> 25 µM (inactive),> 25 µM (inactive),> 25 µM (inactive),> 25 µM (inactive),> 25 µM (inactive),8.02 µM (inactive),> 25 µM (inactive),> 25 µM (inactive),–,> 25 µM (inactive),> 25 µM (inactive),> 25 µM (inactive),> 25 µM (inactive),> 25 µM (inactive),> 25 µM (inactive),23.7 µM (inactive),> 25 µM (inactive)
